Experimental data as given in ChEMBL document CHEMBL1146905, “Synthesis and evaluation of phenoxy acetic acid derivatives as [corrected] anti-mycobacterial agents” (2006).
In brackets after ≈: the same amount, converted by molar mass.

Assays:
Assay type in all cases: functional
[1] = tested on: Mycobacterium tuberculosis; assay: Antimycobacterial activity against Mycobacterium tuberculosis H37Rv by BACTEC-460 radiometric assay above 6.25 ug/ml
[2] = tested on: Mycobacterium tuberculosis; assay: Antimycobacterial activity against Mycobacterium tuberculosis H37Rv by BACTEC-460 radiometric assay
[3] = tested on: Mycobacterium tuberculosis; assay: Antimycobacterial activity against Mycobacterium tuberculosis H37Rv by BACTEC-460 radiometric assay at 6.25 ug/ml

SMILES	Inhibition [1] [%]	MIC [2] [µg/mL]	inhibition at 6.25 µg/mL [3] [%]
COc1cc(C2=NN(C(=O)c3ccc([N+](=O)[O-])cc3)C3CCCC23)c(C)cc1OCC(=O)O (stereo not drawn)	26	> 6.25	–
COc1cc(C2=NN(C(=O)c3ccc([N+](=O)[O-])cc3)C(c3ccc(O)cc3)C2)c(C)cc1OCC(=O)O (stereo not drawn)	74	6.25 (≈ 12.4 µM)	–
COc1cc(C2=NN(C(=O)c3ccccc3)C3CCCC23)c(C)cc1OCC(=O)O (stereo not drawn)	24	> 6.25	–
COc1cc(C2=NN(C(=O)COc3ccc4ccccc4c3)C(Cc3ccccc3)C2)c(C)cc1OCC(=O)O (stereo not drawn)	–	0.22 (≈ 0.408 µM)	95
COc1cc(C2=NN(C(=O)c3ccc([N+](=O)[O-])cc3)C(Cc3ccccc3)C2)c(C)cc1OCC(=O)O (stereo not drawn)	64	> 6.25	–
COc1cc(C2=NN(C(=O)Cc3ccccc3)C3CCCC23)c(C)cc1OCC(=O)O (stereo not drawn)	21	> 6.25	–
COc1cc(C2=NN(C(=O)COc3cccc4ccccc34)C3CCCC23)c(C)cc1OCC(=O)O (stereo not drawn)	54	> 6.25	–
COc1cc(C2=NN(C(=O)COc3cccc4ccccc34)C(c3ccc(O)cc3)C2)c(C)cc1OCC(=O)O (stereo not drawn)	61	> 6.25	–
COc1cc(C2=NN(C(=O)COc3ccccc3)C(c3ccc(O)cc3)C2)c(C)cc1OCC(=O)O (stereo not drawn)	–	0.1 (≈ 0.204 µM)	99
COc1cc(C2=NN(C(=O)COc3ccccc3)C(Cc3ccccc3)C2)c(C)cc1OCC(=O)O (stereo not drawn)	–	> 6.25	94
COc1cc(C2=NN(C(=O)Cc3ccccc3)C(Cc3ccccc3)C2)c(C)cc1OCC(=O)O (stereo not drawn)	34	> 6.25	–
COc1cc(C2=NN(C(=O)COc3ccc4ccccc4c3)C3CCCC23)c(C)cc1OCC(=O)O (stereo not drawn)	91	6.12 (≈ 12.5 µM)	–
COc1cc(C2=NN(C(=O)COc3ccc4ccccc4c3)C(c3ccc(O)cc3)C2)c(C)cc1OCC(=O)O (stereo not drawn)	–	0.1 (≈ 0.185 µM)	99
COc1cc(C2=NN(C(=O)c3ccccc3)C(c3ccc(O)cc3)C2)c(C)cc1OCC(=O)O (stereo not drawn)	72	> 6.25	–
COc1cc(C2=NN(C(=O)COc3cccc4ccccc34)C(Cc3ccccc3)C2)c(C)cc1OCC(=O)O (stereo not drawn)	18	> 6.25	–
COc1cc(C2=NN(C(=O)Cc3ccccc3)C(c3ccc(O)cc3)C2)c(C)cc1OCC(=O)O (stereo not drawn)	28	> 6.25	–
COc1cc(C2=NN(C(=O)c3ccccc3)C(Cc3ccccc3)C2)c(C)cc1OCC(=O)O (stereo not drawn)	12	> 6.25	–
COc1cc(C2=NN(C(=O)COc3ccccc3)C3CCCC23)c(C)cc1OCC(=O)O (stereo not drawn)	87	> 6.25	–
NNC(=O)c1ccncc1 [ISONIAZID]	–	0.1 (≈ 0.729 µM)	96
